Measured values as given in article PMC8949503, “Radiosynthesis and Preclinical Evaluation of Bispecific PSMA/FAP Heterodimers for Tumor Imaging” (Pharmaceuticals, 2022).

How the values were obtained:
FAP = target: T1, FAP (Homo sapiens, UniProt Q12884); assay: competitive binding to FAP on A549-FAP cells vs [18F]FAPI-42; conditions: for IC50: competition with [18F]FAPI-42, 60 min 37 °C
T1 construct: expressed in transfected cells
T1 sequence (Q12884 1-760): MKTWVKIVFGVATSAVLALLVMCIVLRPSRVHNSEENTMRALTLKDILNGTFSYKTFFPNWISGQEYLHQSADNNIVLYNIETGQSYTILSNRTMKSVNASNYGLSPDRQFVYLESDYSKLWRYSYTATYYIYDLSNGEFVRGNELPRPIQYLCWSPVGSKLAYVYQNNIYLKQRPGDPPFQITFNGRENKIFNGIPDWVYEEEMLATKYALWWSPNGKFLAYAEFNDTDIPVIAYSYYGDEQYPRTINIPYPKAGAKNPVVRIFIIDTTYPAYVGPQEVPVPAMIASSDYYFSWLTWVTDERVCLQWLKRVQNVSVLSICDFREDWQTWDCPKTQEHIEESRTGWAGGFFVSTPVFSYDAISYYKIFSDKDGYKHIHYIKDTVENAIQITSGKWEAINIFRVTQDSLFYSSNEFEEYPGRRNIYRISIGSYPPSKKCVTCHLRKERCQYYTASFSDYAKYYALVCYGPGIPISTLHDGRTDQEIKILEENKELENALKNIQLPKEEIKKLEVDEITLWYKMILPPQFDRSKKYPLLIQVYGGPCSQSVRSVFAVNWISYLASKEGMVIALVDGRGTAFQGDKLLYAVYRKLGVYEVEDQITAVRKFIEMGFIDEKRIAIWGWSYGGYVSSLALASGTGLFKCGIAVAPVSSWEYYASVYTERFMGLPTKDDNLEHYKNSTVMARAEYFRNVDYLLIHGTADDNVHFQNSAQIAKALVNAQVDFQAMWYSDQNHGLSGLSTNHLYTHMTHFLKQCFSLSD
Method: (§1) PSMA-positive 22Rv1 cells (purchased from Institute of Biochemistry and Cell Biology, Shanghai, China) and stably FAP-transfected A549-FAP cells (acquired using lentiviral infection) were used for the cell-based experiments. The 22Rv1 cells were cultivated in RPMI-1640 medium (Gibco) at 37 °C/5% carbon dioxide, while the A549-FAP cells were cultivated in DMEM medium. Both media were supplemented with 10% heat-inactivated fetal bovine serum (FBS) and 1% penicillin/streptomycin (Gibco). Puromycin (1 µg/mL) was also added to the media to maintain FAP expression.
(§2) Cells were seeded in 12-well plates 2 days in advance to achieve a final confluence of approximately 80–90% (4–5 × 10^5 cells/well). The medium was displaced by 1 mL fresh medium without FBS. The method of cell studies was similar to a method reported previously. For the competitive binding experiments, cells were incubated with the known radiotracers ([^18F]FAPI-42 for the FAP receptor and [^18F]AlF-PSMA-BCH for PSMA) in the presence of 7 different concentrations (10^−5–10^−11 M) of the corresponding unlabeled heterodimers or corresponding monomer and incubated for 60 min at 37 °C. In all experiments, the cells were washed twice with PBS, lysed with 1 M NaOH, and counted using a γ-counter. IC50 values were calculated by fitting the data using a nonlinear regression algorithm (implemented in SPSS). For the radioligand binding studies, the cells were incubated for 5, 15, 30, 60, or 120 min at 37 °C after the addition of the heterodimer or corresponding monomeric radiotracer radiotracers. The blocking experiments were determined by adding the corresponding competitors (4.4 μM 2-PMPA for 22Rv1 cells and 2.3 μM DOTA-FAPI-04 for A549-FAP cells). Radioactivity was measured using a γ-counter, normalized to 1 million cells (1 mio cells), and calculated as the percentage of the applied dose (%ID/1 mio cells). For the internalization experiments, the cells were incubated with the radiolabeled compound for 60 min, washed twice with 1 mL PBS, and then incubated for 10 min with 1 mL glycine HCl (1 M, pH 2.2) to detach the extracellular bound tracer. Next, the cells were washed with PBS (2.0 mL) and lysed with 1 M NaOH (1.5 mL). The radioactivity of the acid wash solution (extracellularly bound tracer) and cell lysate (internalized tracer) was assessed separately using a γ-counter. For the efflux experiments, the radioactive medium was removed after 60 min incubation and replaced with non-radioactive medium. At predetermined time points of 15, 30, 60, and 120 min, the cells were washed with 1.0 mL PBS three times and then lysed. The radioactivity of the remaining cells was assessed using a γ-counter. Each experiment was conducted three times with three or four replicates per independent experiment.

PSMA = target: T2, PSMA (Homo sapiens, UniProt Q04609); assay: competitive binding to PSMA on 22Rv1 cells vs [18F]AlF-PSMA-BCH; conditions: for IC50: competition with [18F]AlF-PSMA-BCH, 60 min 37 °C
T2 construct: PSMA-positive 22Rv1 cells; host or cells: 22Rv1 cells
Method: as §1, §2

[1] = tested on: 22Rv1 tumor-bearing nude mice; assay: tissue biodistribution and blocking in 22Rv1 tumor-bearing nude mice; format: in vivo; conditions: 1 h p.i.
Method: (§3) For the biodistribution and micro-PET imaging studies, male BALB/c nude mice (6–8 weeks) were subcutaneously inoculated with 1 × 10^7 22Rv1 or 5 × 10^6 A549-FAP cells in the right shoulder. Mice were imaged or used in the biodistribution studies when the tumor reached 5–10 mm in diameter.
(§4) Mice bearing 22Rv1 or A549-FAP (n = 4 in each group) tumors were euthanized 60 min after intravenous administration of each tracer (740–1480 KBq/mouse). In the blocking group, the same experiment was conducted by co-injecting 50 μg of 2-PMPA for mice bearing 22Rv1 tumors or 50 μg of DOTA-FAPI-04 for mice bearing A549-FAP tumors. The organs of interest and tumors were quickly dissected and weighed. Radioactivity was assessed using a γ-counter and calculated as the percentage injected dose per gram (%ID/g).

[2] = tested on: A549-FAP tumor-bearing nude mice; assay: tissue biodistribution and blocking in A549-FAP tumor-bearing nude mice; format: in vivo; conditions: 1 h p.i.
Method: as §3, §4

T2 sequence (Q04609 whole entry): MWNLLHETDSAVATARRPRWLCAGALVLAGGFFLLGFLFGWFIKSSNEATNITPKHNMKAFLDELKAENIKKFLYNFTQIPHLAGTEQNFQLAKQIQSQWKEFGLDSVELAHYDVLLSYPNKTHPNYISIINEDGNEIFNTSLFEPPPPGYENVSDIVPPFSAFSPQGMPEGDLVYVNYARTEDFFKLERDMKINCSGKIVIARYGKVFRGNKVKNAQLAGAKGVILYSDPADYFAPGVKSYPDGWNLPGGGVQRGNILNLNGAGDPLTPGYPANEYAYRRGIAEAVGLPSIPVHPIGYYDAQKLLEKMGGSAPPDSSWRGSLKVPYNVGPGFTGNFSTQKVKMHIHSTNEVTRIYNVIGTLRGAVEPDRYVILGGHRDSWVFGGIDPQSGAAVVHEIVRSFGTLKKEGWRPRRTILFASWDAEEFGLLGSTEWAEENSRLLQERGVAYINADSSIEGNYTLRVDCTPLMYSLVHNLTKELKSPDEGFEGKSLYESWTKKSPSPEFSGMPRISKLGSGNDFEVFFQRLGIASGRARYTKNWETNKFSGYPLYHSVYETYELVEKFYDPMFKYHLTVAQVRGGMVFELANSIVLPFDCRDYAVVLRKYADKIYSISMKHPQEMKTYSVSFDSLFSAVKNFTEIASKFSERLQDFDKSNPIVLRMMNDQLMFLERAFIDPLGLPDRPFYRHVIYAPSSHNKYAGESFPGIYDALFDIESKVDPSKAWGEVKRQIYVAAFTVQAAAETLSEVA

SMILES: N#C[C@@H]1CC(F)(F)CN1C(=O)CNC(=O)c1ccnc2ccc(OCCCN3CCN(C(=O)CCC(=O)NCCCC[C@H](NC(=O)CN4CCN(CC(=O)O)CCN(CC(=O)O)CC4)C(=O)NCC4CCC(C(=O)N[C@H](Cc5ccc6ccccc6c5)C(=O)NCCCC[C@H](NC(=O)N[C@@H](CCC(=O)O)C(=O)O)C(=O)O)CC4)CC3)cc12 (stereo partly drawn) [NOTA-PSMA-FAPI-02]
- fold higher in potency than the monomer NOTA-FAPI-42 (FAP): ~3 fold
- IC50 (FAP): 5.8 nM
- fold less potent than the monomer NOTA-PSMA-BCH (PSMA): ~4 fold
- IC50 (PSMA): 9.8 nM

SMILES: O=C(O)CC[C@H](NC(=O)N[C@@H](CCCCNC(=O)[C@@H](Cc1ccc2ccccc2c1)NC(=O)C1CCC(CNC(=O)CN2CCN3CCN(CC2)CC(=O)[O][Al]([18F])[O]C(=O)C3)CC1)C(=O)O)C(=O)O (stereo partly drawn) [[^18F]AlF-PSMA-BCH]
- 22Rv1 tumor* uptake [1]: 6.44 ± 1.78 %ID/g
- Blood uptake [1]: 0.56 ± 0.19 %ID/g
- Bone uptake [1]: 0.84 ± 0.39 %ID/g
- Brain uptake [1]: 0.14 ± 0.04 %ID/g
- Gall bladder uptake [1]: 6.62 ± 4.25 %ID/g
- Heart uptake [1]: 0.45 ± 0.10 %ID/g
- Kidney* uptake [1]: 66.10 ± 18.80 %ID/g
- Liver uptake [1]: 0.47 ± 0.03 %ID/g
- Lung uptake [1]: 0.86 ± 0.25 %ID/g
- Muscle uptake [1]: 0.31 ± 0.10 %ID/g
- Small intestine uptake [1]: 0.78 ± 0.12 %ID/g
- Spleen uptake [1]: 1.33 ± 0.54 %ID/g
- Stomach uptake [1]: 0.41 ± 0.05 %ID/g

SMILES: N#C[C@@H]1CC(F)(F)CN1C(=O)CNC(=O)c1ccnc2ccc(OCCCN3CCN(C(=O)CN4CCN(CC(=O)O)CCN(CC(=O)O)CC4)CC3)cc12 [NOTA-FAPI-42, reference compound]
- IC50 (FAP): 14.5 nM

SMILES: N#C[C@@H]1CC(F)(F)CN1C(=O)CNC(=O)c1ccnc2ccc(OCCCC(=O)NCCCC[C@H](NC(=O)CN3CCN(CC(=O)O)CCN(CC(=O)O)CC3)C(=O)NCC3CCC(C(=O)N[C@H](Cc4ccc5ccccc5c4)C(=O)NCCCC[C@H](NC(=O)N[C@@H](CCC(=O)O)C(=O)O)C(=O)O)CC3)cc12 (stereo partly drawn) [NOTA-PSMA-FAPI-01]
- fold higher in potency than the monomer NOTA-FAPI-42 (FAP): approximately 9 fold
- IC50 (FAP): 1.7 nM
- fold less potent than the monomer NOTA-PSMA-BCH (PSMA): approximately 13 fold
- IC50 (PSMA): 33.7 nM

SMILES: O=C(O)CC[C@H](NC(=O)N[C@@H](CCCCNC(=O)[C@@H](Cc1ccc2ccccc2c1)NC(=O)C1CCC(CNC(=O)CN2CCN(CC(=O)O)CCN(CC(=O)O)CC2)CC1)C(=O)O)C(=O)O (stereo partly drawn) [NOTA-PSMA-BCH, reference compound]
- IC50 (PSMA): 2.5 nM

SMILES: N#C[C@@H]1CC(F)(F)CN1C(=O)CNC(=O)c1ccnc2ccc(OCCCN3CCN(C(=O)CN4CCN5CCN(CC4)CC(=O)[O][Al]([F])[O]C(=O)C5)CC3)cc12 [[^18F]FAPI-42, reference compound]
- A549-FAP tumor uptake [2]: 5.25 ± 0.27 %ID/g
- Blood uptake [2]: 1.52 ± 0.22 %ID/g
- Bone uptake [2]: 7.29 ± 1.52 %ID/g
- Brain uptake [2]: 0.10 ± 0.01 %ID/g
- Gall bladder uptake [2]: 10.58 ± 0.83 %ID/g
- Heart uptake [2]: 0.76 ± 0.09 %ID/g
- Kidney uptake [2]: 1.86 ± 0.11 %ID/g
- Liver uptake [2]: 0.83 ± 0.19 %ID/g
- Lung uptake [2]: 0.96 ± 0.11 %ID/g
- Muscle uptake [2]: 1.86 ± 0.32 %ID/g
- Small intestine uptake [2]: 2.85 ± 0.91 %ID/g
- Spleen uptake [2]: 0.64 ± 0.04 %ID/g
- Stomach uptake [2]: 0.56 ± 0.03 %ID/g
